Source: patent US4321271A, “Heterocyclic and aliphatic growth promotors” (Beecham Group Limited, priority 1979, dated 1982)
Where two headings read alike, the source gives them in different places.

Assays:
[1] = test system: rumen fluid; assay: In vitro incubation of buffered rumen fluid: volatile fatty acids, methane inhibition and hydrogen; format: cell-based, sheep; conditions: 20 h; for % hydrogen present: headspace gas; for Molar % VFA Acetate / Molar % VFA Butyrate / Molar % VFA Propionate / TVFA: sheep rumen fluid
Protocol: The compounds were tested for their ability to reduce or inhibit methane production and to enhance propionate formation. The method used is as follows:
The screening system is in vitro incubation of buffered rumen fluid with, or without, the addition of the test compound.
Rumen fluid is removed by suction from two rumen-fistulated sheep, just before feeding. The fluid is strained and mixed. The incubation is for twenty hours in a shaking water-bath at 39° C. Each incubation flask contains: 30 ml McDougall's bicarbonate buffer-pH 6.7-6.9, 10 ml strained rumen fluid, 200 mg substrate (the substrate is a ground sample of the diet on which the sheep has been fed) and 1 ml 10% aqueous ethanol containing 0.2% Tween 80 and the compound under examination. Samples are taken at the end of the incubation period for analysis of headspace gases and volatile fatty acids, by g.l.c. […]

[2] = test system: methanogenesis; assay: In vivo "gas collection screen" in sheep (respirometer): methanogenesis and hydrogen evolution; conditions: sheep 50 kg, in diet, 75 mg/day, 5 week period
Protocol: In vivo Studies in a "gas collection screen":
A Group of 4, 50 kg Sheep were fed diets containing the compound of Example 6 over 5 week period. A different sheep from each group was put into a respirometer for 24 hours each day. Each sheep was thus monitored once in every […]. Gas flow was maintained by a peristatic pump and measured using a commercial gas meter and a sub-sample collected in a butyl-rubber inner tube. Gas analysis was carried out by gas chromatograph using a R/E 204 gas chromatograph with both electron capture and […] detectors.
During a run-in control period it was found the sheep produced 19.2±0.4 liters methane/day and not more than 1.5 liters Hydrogen/day.
The compounds were stable in the feed over the period of the study. By feeding measured amounts to the sheep (no refusals) it was possible to "dose" each sheep with 75 mg/day.

[3] = Ovis aries, read-out: VFA production % difference from control, Acetate
[4] = Ovis aries, read-out: VFA production % difference from control, Butyrate
[5] = Ovis aries, read-out: VFA production % difference from control, Propionate
[6] = Ovis aries, read-out: VFA production % difference from control, TVFA
[7] = Ovis aries, 10 ppm/flask, 39° C

CN1CCN(CC(O)C(Cl)(Cl)Cl)CC1 (stereo not drawn) [Compound A, reference compound]
% hydrogen present ([1]; 10 ppm/flask, 39° C): 0.062% | Molar % VFA Acetate ([1]; 10 ppm/flask, 39° C): 65.3% | Molar % VFA Butyrate ([1]; 10 ppm/flask, 39° C): 9.13% | Molar % VFA Propionate ([1]; 10 ppm/flask, 39° C): 21.9% | TVFA ([1]; 10 ppm/flask, 39° C): 56.7 μM/ml | percent change in VFA production versus control at 10 ppm [1, 3]: -35% | percent change in VFA production versus control at 10 ppm [1, 4]: 9% | percent change in VFA production versus control at 10 ppm [1, 5]: 19.9% | percent change in VFA production versus control at 10 ppm [1, 6]: -22.6% | inhibition at 10 ppm [1, 7]: 50.6%

CNCC(O)C(Cl)(Cl)Cl (stereo not drawn) [Example 1, 1,1,1-Trichloro-3-methylaminopropan-2-ol]
% hydrogen present ([1]; 10 ppm/flask, 39° C): 1.43% | Molar % VFA Acetate ([1]; 10 ppm/flask, 39° C): 55.3% | Molar % VFA Butyrate ([1]; 10 ppm/flask, 39° C): 12.1% | Molar % VFA Propionate ([1]; 10 ppm/flask, 39° C): 30.4% | TVFA ([1]; 10 ppm/flask, 39° C): 40.6 μM/ml | percent change in VFA production versus control at 10 ppm [1, 3]: -44.7% | percent change in VFA production versus control at 10 ppm [1, 4]: -29.7% | percent change in VFA production versus control at 10 ppm [1, 5]: 22.3% | percent change in VFA production versus control at 10 ppm [1, 6]: -28.2% | inhibition at 10 ppm [1, 7]: 100%

CN(C)CC(O)C(Cl)(Cl)Cl (stereo not drawn) [Example 2, 1,1,1-Trichloro-3-dimethylaminopropan-2-ol]
% hydrogen present ([1]; 10 ppm/flask, 39° C): 1.61% | Molar % VFA Acetate ([1]; 10 ppm/flask, 39° C): 55.6% | Molar % VFA Butyrate ([1]; 10 ppm/flask, 39° C): 12.2% | Molar % VFA Propionate ([1]; 10 ppm/flask, 39° C): 29.7% | TVFA ([1]; 10 ppm/flask, 39° C): 43.9 μM/ml | percent change in VFA production versus control at 10 ppm [1, 3]: -35.5% | percent change in VFA production versus control at 10 ppm [1, 4]: -18.1% | percent change in VFA production versus control at 10 ppm [1, 5]: 31.5% | percent change in VFA production versus control at 10 ppm [1, 6]: -18.4% | inhibition at 10 ppm [1, 7]: 100%

CCN(CC)CC(O)C(Cl)(Cl)Cl (stereo not drawn) [Example 3, 1,1,1-Trichloro-3-diethylaminopropan-2-ol]
% hydrogen present ([1]; 10 ppm/flask, 39° C): 1.27% | Molar % VFA Acetate ([1]; 10 ppm/flask, 39° C): 54.2% | Molar % VFA Butyrate ([1]; 10 ppm/flask, 39° C): 12.4% | Molar % VFA Propionate ([1]; 10 ppm/flask, 39° C): 30.0% | TVFA ([1]; 10 ppm/flask, 39° C): 43.3 μM/ml | percent change in VFA production versus control at 10 ppm [1, 3]: -42.3% | percent change in VFA production versus control at 10 ppm [1, 4]: -20% | percent change in VFA production versus control at 10 ppm [1, 5]: 26.8% | percent change in VFA production versus control at 10 ppm [1, 6]: -23% | inhibition at 10 ppm [1, 7]: 100%

CC(C)CNCC(O)C(Cl)(Cl)Cl (stereo not drawn) [Example 4, 1,1,1-Trichloro-3-isobutylaminopropan-2-ol]
% hydrogen present ([1]; 10 ppm/flask, 39° C): 1.07% | Molar % VFA Acetate ([1]; 10 ppm/flask, 39° C): 55.3% | Molar % VFA Butyrate ([1]; 10 ppm/flask, 39° C): 12.3% | Molar % VFA Propionate ([1]; 10 ppm/flask, 39° C): 30.0% | TVFA ([1]; 10 ppm/flask, 39° C): 40.1 μM/ml | percent change in VFA production versus control at 10 ppm [1, 3]: -45.7% | percent change in VFA production versus control at 10 ppm [1, 4]: -29% | percent change in VFA production versus control at 10 ppm [1, 5]: 18.8% | percent change in VFA production versus control at 10 ppm [1, 6]: -29.4% | inhibition at 10 ppm [1, 7]: 100%

OC(CNC1CCCCC1)C(Cl)(Cl)Cl (stereo not drawn) [Example 5, 1,1,1-Trichloro-3-cyclohexylaminopropan-2-ol]
% hydrogen present ([1]; 10 ppm/flask, 39° C): 1.01% | Molar % VFA Acetate ([1]; 10 ppm/flask, 39° C): 56.7% | Molar % VFA Butyrate ([1]; 10 ppm/flask, 39° C): 10.21% | Molar % VFA Propionate ([1]; 10 ppm/flask, 39° C): 31.1% | TVFA ([1]; 10 ppm/flask, 39° C): 44.2 μM/ml | percent change in VFA production versus control at 10 ppm [1, 3]: -31.1% | percent change in VFA production versus control at 10 ppm [1, 4]: 14.6% | percent change in VFA production versus control at 10 ppm [1, 5]: 32.5% | percent change in VFA production versus control at 10 ppm [1, 6]: -11.8% | inhibition at 10 ppm [1, 7]: 100%

OC(CN1CCCCC1)C(Cl)(Cl)Cl (stereo not drawn) [Example 6, 1,1,1-Trichloro-3-(N-piperidino)propan-2-ol]
% hydrogen present ([1]; 10 ppm/flask, 39° C): 1.34% | Molar % VFA Acetate ([1]; 10 ppm/flask, 39° C): 57.7% | Molar % VFA Butyrate ([1]; 10 ppm/flask, 39° C): 9.64% | Molar % VFA Propionate ([1]; 10 ppm/flask, 39° C): 30.7% | TVFA ([1]; 10 ppm/flask, 39° C): 45.3 μM/ml | percent change in VFA production versus control at 5 µg/mL [1, 3]: -19.1% | percent change in VFA production versus control at 10 ppm [1, 3]: -25.8% | percent change in VFA production versus control at 5 µg/mL [1, 4]: 27.7% | percent change in VFA production versus control at 10 ppm [1, 4]: 7.9% | percent change in VFA production versus control at 5 µg/mL [1, 5]: 23% | percent change in VFA production versus control at 10 ppm [1, 5]: 34.1% | percent change in VFA production versus control at 5 µg/mL [1, 6]: -7.1% | percent change in VFA production versus control at 10 ppm [1, 6]: -8.3% | inhibition at 10 ppm [1, 7]: 100% | inhibition at 5 µg/mL ([1]; Ovis aries, tested at 5 ppm level, 39° C): 32.2% | % hydrogen present ([1]; tested at 5 ppm level, 39° C): 0.09% | % inhibition of methanogenesis [2]: 9.1% | Hydrogen evolution [2]: 2.1 liters/24h

OC(CN1CCCC1)C(Cl)(Cl)Cl (stereo not drawn) [Example 7, 1,1,1-Trichloro-3-(N-pyrrolidino)propan-2-ol]
% hydrogen present ([1]; 10 ppm/flask, 39° C): 1.18% | Molar % VFA Acetate ([1]; 10 ppm/flask, 39° C): 57.7% | Molar % VFA Butyrate ([1]; 10 ppm/flask, 39° C): 9.67% | Molar % VFA Propionate ([1]; 10 ppm/flask, 39° C): 30.5% | TVFA ([1]; 10 ppm/flask, 39° C): 44.6 μM/ml | percent change in VFA production versus control at 10 ppm [1, 3]: -27.6% | percent change in VFA production versus control at 10 ppm [1, 5]: 30.5% | percent change in VFA production versus control at 10 ppm [1, 6]: -10.4% | inhibition at 10 ppm [1, 7]: 100%
